Experimental findings from article PMC6437697 (Journal of Medicinal Chemistry, 2019) are described below.

Common to all, as to assay: KINOMEscan
Common to all, as to assay type: binding
Details in all cases: read-out: % control activity remaining

In one test the target is T1, RIOK1 (Homo sapiens, UniProt Q9BRS2).
T1 construct: purchased Eurofins DiscoverX KINOMEscan
T1 sequence (Q9BRS2 1-568): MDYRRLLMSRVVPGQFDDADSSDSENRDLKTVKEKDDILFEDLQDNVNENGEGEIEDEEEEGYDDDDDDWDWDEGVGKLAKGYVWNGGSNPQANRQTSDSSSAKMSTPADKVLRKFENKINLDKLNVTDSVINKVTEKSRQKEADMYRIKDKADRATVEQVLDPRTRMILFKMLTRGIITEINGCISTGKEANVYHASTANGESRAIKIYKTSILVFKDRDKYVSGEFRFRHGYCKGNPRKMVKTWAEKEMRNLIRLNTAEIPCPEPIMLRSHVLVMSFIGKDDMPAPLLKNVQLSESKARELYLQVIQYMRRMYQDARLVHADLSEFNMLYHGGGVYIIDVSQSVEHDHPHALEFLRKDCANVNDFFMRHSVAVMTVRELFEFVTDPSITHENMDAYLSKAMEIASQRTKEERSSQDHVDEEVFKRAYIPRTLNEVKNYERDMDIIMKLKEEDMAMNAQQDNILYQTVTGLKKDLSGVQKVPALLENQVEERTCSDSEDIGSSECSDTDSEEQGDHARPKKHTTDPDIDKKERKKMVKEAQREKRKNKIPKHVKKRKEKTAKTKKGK

In another test the target is T2, BMPR2 (Homo sapiens, UniProt Q13873).
T2 construct: purchased Eurofins DiscoverX KINOMEscan
T2 sequence (Q13873 27-1038): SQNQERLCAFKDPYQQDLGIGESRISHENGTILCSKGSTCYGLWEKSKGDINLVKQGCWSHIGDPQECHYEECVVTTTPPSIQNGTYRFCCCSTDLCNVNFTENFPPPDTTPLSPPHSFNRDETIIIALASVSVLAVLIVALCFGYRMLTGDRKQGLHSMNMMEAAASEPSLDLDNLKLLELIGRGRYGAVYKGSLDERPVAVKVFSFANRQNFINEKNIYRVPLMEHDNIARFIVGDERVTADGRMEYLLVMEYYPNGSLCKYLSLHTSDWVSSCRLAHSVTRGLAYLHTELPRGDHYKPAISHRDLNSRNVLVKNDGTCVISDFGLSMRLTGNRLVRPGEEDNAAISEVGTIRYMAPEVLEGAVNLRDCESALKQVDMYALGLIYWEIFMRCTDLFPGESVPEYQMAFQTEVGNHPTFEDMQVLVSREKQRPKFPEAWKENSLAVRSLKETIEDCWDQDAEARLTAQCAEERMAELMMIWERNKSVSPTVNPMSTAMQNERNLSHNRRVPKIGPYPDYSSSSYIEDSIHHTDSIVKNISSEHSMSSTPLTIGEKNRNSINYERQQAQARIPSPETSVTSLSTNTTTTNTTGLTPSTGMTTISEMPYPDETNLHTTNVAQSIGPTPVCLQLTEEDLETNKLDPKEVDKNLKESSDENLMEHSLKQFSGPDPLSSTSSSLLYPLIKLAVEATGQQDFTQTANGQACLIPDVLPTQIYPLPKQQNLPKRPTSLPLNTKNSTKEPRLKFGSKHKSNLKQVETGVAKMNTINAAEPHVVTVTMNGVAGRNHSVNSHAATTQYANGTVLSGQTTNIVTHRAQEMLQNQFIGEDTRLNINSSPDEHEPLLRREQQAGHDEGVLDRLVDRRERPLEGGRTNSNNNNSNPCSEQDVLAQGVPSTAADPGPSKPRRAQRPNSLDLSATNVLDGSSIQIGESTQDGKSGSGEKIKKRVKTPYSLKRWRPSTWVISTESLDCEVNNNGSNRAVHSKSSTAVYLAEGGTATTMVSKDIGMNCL

In another test the target is T3, PRKCI (Homo sapiens, UniProt P41743).
T3 construct: purchased Eurofins DiscoverX KINOMEscan
T3 sequence (P41743 1-596): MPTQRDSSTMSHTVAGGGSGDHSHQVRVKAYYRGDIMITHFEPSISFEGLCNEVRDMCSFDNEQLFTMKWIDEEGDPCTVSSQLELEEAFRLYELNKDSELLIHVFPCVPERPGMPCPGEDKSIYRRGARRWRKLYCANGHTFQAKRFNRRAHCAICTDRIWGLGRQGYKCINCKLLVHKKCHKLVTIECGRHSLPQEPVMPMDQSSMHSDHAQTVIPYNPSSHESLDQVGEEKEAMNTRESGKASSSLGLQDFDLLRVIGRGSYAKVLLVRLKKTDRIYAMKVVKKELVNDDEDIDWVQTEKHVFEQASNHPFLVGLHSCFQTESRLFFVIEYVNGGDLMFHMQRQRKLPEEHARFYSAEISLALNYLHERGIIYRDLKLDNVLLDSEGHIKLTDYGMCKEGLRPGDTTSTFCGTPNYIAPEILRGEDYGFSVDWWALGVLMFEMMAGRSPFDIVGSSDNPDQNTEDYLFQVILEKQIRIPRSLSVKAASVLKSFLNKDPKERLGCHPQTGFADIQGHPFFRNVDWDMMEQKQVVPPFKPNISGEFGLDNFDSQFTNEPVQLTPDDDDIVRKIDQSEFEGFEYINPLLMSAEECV

The target in another test is T4, INSR (Homo sapiens, UniProt P06213).
T4 construct: purchased Eurofins DiscoverX KINOMEscan

For the next test, the target named is T5, MTOR (Homo sapiens, UniProt P42345).
T5 construct: purchased Eurofins DiscoverX KINOMEscan

Test [1] addresses T6, JAK1(JH2domain-pseudokinase) (Homo sapiens, UniProt P23458).
T6 construct: JAK1(JH2domain-pseudokinase); purchased Eurofins DiscoverX KINOMEscan

For a further test, the target named is T7, KIT(A829P) (Homo sapiens, UniProt P10721, A829P).
T7 construct: purchased Eurofins DiscoverX KINOMEscan
T7 sequence (P10721 26-976 A829P): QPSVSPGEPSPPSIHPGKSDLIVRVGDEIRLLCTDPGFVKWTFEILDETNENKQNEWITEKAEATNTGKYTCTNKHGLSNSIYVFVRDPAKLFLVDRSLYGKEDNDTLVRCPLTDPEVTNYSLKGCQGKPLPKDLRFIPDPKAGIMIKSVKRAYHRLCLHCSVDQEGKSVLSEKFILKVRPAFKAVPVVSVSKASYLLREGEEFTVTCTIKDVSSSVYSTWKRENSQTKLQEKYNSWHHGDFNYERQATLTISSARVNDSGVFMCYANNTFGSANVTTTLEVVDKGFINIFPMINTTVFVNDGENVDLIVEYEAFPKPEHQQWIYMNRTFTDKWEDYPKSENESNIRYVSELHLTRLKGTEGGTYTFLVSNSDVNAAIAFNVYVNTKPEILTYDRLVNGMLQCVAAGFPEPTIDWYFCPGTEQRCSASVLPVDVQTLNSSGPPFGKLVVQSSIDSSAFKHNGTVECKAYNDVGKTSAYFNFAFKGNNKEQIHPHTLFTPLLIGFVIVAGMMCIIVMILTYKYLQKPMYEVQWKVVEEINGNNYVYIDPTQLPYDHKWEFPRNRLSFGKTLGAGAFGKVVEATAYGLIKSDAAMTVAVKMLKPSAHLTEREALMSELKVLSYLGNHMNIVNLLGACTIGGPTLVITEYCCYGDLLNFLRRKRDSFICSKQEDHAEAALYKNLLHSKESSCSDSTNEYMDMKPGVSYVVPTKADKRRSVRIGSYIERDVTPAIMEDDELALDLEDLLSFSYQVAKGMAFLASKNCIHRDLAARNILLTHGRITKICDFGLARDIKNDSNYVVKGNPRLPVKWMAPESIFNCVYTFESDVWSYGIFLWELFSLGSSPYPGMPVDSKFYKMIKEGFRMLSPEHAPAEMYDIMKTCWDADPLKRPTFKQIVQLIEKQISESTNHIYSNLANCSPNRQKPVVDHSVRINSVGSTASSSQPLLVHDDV

T6 sequence (P23458 583-855 limits assumed): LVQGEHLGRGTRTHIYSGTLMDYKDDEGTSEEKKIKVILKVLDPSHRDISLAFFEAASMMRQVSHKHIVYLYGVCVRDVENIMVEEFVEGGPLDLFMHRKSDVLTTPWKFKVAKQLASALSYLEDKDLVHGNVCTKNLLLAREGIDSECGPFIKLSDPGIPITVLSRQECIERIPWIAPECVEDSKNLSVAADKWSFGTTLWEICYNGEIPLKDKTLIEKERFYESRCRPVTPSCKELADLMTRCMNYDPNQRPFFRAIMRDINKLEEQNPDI
T4 sequence (P06213 28-1382): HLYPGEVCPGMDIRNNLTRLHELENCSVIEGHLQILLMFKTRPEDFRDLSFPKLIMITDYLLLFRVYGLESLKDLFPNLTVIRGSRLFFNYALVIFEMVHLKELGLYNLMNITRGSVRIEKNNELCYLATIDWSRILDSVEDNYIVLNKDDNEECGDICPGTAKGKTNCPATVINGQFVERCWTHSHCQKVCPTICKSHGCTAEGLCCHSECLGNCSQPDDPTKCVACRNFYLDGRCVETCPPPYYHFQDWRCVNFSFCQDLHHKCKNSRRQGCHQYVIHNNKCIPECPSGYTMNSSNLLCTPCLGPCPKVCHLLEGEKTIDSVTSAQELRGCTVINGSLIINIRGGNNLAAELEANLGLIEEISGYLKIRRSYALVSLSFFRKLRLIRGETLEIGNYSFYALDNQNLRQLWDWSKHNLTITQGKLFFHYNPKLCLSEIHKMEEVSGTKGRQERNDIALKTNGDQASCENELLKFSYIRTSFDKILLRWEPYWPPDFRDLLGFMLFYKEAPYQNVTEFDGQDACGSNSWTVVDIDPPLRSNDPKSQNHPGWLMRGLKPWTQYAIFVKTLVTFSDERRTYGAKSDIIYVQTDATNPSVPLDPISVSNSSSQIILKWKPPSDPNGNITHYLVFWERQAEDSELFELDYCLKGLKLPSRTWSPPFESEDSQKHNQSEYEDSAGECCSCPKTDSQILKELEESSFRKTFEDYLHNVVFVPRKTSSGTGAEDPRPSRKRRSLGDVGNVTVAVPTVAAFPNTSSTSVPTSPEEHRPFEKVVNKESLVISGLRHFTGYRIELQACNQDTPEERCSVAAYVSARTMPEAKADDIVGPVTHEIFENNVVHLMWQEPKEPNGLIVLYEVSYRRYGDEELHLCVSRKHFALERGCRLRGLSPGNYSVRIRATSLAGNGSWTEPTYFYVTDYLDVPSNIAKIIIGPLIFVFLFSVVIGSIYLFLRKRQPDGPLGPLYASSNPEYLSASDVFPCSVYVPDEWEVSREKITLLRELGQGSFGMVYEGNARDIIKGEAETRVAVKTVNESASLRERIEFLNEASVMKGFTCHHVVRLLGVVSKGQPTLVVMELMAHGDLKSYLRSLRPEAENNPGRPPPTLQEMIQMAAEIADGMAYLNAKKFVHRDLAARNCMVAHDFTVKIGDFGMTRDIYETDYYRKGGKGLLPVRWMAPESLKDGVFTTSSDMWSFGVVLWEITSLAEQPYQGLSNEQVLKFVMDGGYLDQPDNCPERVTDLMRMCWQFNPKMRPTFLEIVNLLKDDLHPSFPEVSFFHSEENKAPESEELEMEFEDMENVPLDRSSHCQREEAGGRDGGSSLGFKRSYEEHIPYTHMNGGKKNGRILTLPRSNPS

As to `Clc1cc(NCC2CC2)c2ncc(-c3ccc4[nH]ncc4c3)n2n1` [compound 2, 6-Chloro-N-(cyclopropylmethyl)-3-(1H-indazol-5-yl)imidazo[1,2-b]pyridazin-8-amine], the remaining binding at 1 µM on RIOK1 came to 35%; on BMPR2, 96%; on PRKCI it was 88%; on INSR, 99%; at MTOR, 98%; in test [1], 93%. For the same compound, the remaining binding at 1 µM on KIT(A829P) was 75%.

In the case of `O=C(CN1CCOCC1)N[C@H]1CC[C@H](Nc2cc(Cl)nn3c(-c4ccc5[nH]ncc5c4)cnc23)CC1` [compound 26], the remaining binding at 1 µM at RIOK1 was determined as 33%; on BMPR2, 100%; at PRKCI, 100%; at INSR, 91%; at MTOR, 100%; in test [1] it was 100%. Also, the remaining binding at 1 µM on KIT(A829P) was 45%.

With `CN1CCC(CNc2cc(Cl)nn3c(-c4cc5nc(Nc6ccccc6)[nH]c5cc4F)cnc23)CC1` [compound 31, 6-Chloro-3-(6-fluoro-2-(phenylamino)-1H-benzo[d]imidazol-5-yl)-N-((1-methylpiperidin-4-yl)methyl)imidazo[1,2-b]pyridazin-8-amine], the remaining binding at 1 µM was 88% at RIOK1; 91% at BMPR2; 89% at PRKCI; 97% at INSR; 89% on MTOR; 82% in test [1]. Besides, the remaining binding at 1 µM on KIT(A829P) is 94%.
